Reference: patent publication US11732029B2, “Methods and compositions for the treatment of wounds” (The University of Chicago, priority 2017, dated 2023)
“Also recorded” adds a separate entry of the source.

T1: VEGF-A165 (Homo sapiens, UniProt P15692)
T1 construct: All growth factors (GFs) and chemokines were purchased in their mature forms; purchased PeproTech; host or cells: Escherichia coli
T1 sequence (P15692 27-191 isoform P15692-4 limits assumed): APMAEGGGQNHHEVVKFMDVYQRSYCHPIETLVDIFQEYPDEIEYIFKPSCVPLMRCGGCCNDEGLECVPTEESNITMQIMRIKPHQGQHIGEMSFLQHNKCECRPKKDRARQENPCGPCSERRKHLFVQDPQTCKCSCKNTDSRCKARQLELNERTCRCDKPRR

T2: PlGF-2 (Homo sapiens, UniProt P49763)
T2 sequence (P49763 19-170 isoform P49763-3 limits assumed): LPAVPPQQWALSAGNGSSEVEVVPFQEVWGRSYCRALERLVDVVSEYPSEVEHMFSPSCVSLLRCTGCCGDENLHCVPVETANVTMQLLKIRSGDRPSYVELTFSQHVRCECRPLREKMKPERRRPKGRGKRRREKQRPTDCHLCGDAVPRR

T3: VEGF-A145 (Homo sapiens, UniProt P15692)
T3 construct: All GFs and chemokines were purchased in their mature forms; purchased R & D Systems
T3 sequence (P15692 27-171 isoform P15692-6 limits assumed): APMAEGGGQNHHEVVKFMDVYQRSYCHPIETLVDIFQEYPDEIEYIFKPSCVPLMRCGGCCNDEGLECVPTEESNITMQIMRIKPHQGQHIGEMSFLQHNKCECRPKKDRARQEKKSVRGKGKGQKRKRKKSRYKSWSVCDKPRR

B1: vWF A2: recombinant human vWF A2 domain (R & D systems) (protein)
chain: DVAFVLEGSDKIGEADFNRSKEFMEEVIQRMDVGQDSIHVTVLQYSYMVTVEYPFSEAQSKGDILQRVREIRYQGGNRTNTGLALRYLSDHSFLVSQGDREQAPNLVYMVTGNPASDEIKRLPGDIQVVPIGVGPNANVQELERIGWPNAPILIQDFETLPREAPDLV

How the values were obtained:
[1] = test system: human lung fibroblasts; assay: Cell adhesion assay, fibroblasts on laminin peptide coated plates; assay type: cell-based; parameters: key to Cell adhesion Fibroblasts: ++ indicates high affinities; + indicates medium/low affinities; conditions: for fibroblast attachment: peptide-coated plates, 30 min at 37° C., without EDTA; for Cell adhesion Fibroblasts: summary Table 2
Procedure: (§1) 96-well plates (non-tissue culture treated, Greiner Bio-one) were pre-coated with 1 μg/mL with laminin HBD peptides in PBS for 2 hrs at 37° C., followed by blocking with 2% BSA PBS for 1 h at RT. Cell adhesion assays were performed using human lung fibroblasts (Lonza) in FGM-2 medium (Lonza) or human umbilical vein endothelial cells (HUVEC; Lonza) in EGM-2 medium (Lonza) supplemented with 1% fetal bovine serum (FBS) and […] VEGF-A165, with or without 5 mM EDTA (Sigma-Aldrich). Cells were plated at 3000 cells/well on laminin peptide pre-coated plates and incubated for 30 min at 37° C., 5% CO2. Then, the medium was removed, and wells were quickly washed three times with PBS. Cell numbers were quantified using a CyQUANT assay, according to the manufacturer's instructions (Invitrogen). All cell lines were checked for mycoplasma contamination and used in passages from 5 to 8.

[2] = test system: HUVEC; assay: Cell adhesion assay, HUVEC on laminin peptide coated plates; assay type: cell-based, human; parameters: key to Cell adhesion HUVECs: ++ indicates high affinities; + indicates medium/low affinities; conditions: for HUVEC attachment: peptide-coated plates, 30 min at 37° C., without EDTA; for Cell adhesion HUVECs: summary Table 2
Procedure: as §1

[3] = test system: GFs; assay: GF binding to synthesized laminin peptides (ELISA), all tested GFs together; parameters: species or system human; key to Interaction with GFs: ++ indicates high affinities; + indicates medium/low affinities; conditions: for Interaction with GFs: summary Table 2; for binding to the tested GFs: ELISA, statement for all tested GFs (VEGF-A, PlGF, PDGF-BB, FGF-2)
Procedure: (§2) ELISA tests were performed as described above. In brief, ELISA plates were coated with 1 μg/mL of laminin alpha 3 LG domain recombinant protein, laminin alpha 4 LG domain recombinant protein (R&D systems), laminin alpha 5 LG domain recombinant protein (LD BioPharma), or laminin peptide (sequences are described in Table 1, chemically synthesized by Genscript) in PBS for 2 hrs at 37° C. 1 μg/mL of BSA served as non-binding protein control. After blocking with 2% BSA PBS-0.05% Tween 20 (PBS-T) solution, 1 μg/mL of the recombinant human proteins (VEGF-A121, VEGF-A165, PlGF-1, PlGF-2, PDGF-BB or FGF-2) or 10 μg/mL of biotinylated heparin (Sigma-Aldrich) were added. Bound GF was detected with biotinylated antibodies for human VEGF, PlGF, PDGF-BB, or FGF-2 (R&D Systems). The antibodies were detected by streptavidin-HRP (R&D Systems).

[4] = molecular target: T1, VEGF-A165; assay: GF binding to recombinant laminin LG domain protein and synthesized laminin HBD peptides (ELISA); conditions: plate coated with LG domain protein or peptide, 1 μg/mL GF, vs BSA-coated wells
Procedure: as §2

[5] = test system: syndecan-1, syndecan-2, syndecan-3, syndecan-4; assay: Recombinant syndecan binding to synthesized laminin HBD peptides (ELISA); parameters: species or system human; key to Interaction with Syndecans: ++ indicates high affinities; + indicates medium/low affinities; conditions: for binding to recombinant syndecans (syndecan 1-4): ELISA, peptide-coated plate, 1 μg/mL syndecan; for Interaction with Syndecans: summary Table 2
Procedure: ELISA tests were performed as described above. In brief, ELISA plates were coated with 1 μg/mL laminin peptide (sequences are described in Table 1, chemically synthesized by Genscript) in PBS for 2 hrs at 37° C. 1 μg/mL of BSA served as non-binding protein control. After blocking with 2% BSA PBS-T solution, 1 μg/mL of the recombinant human syndecan-1, syndecan-2, syndecan-3, syndecan-4 (all syndecan proteins are histidine-tagged; SinoBiological) were added. Bound GF was detected with anti-histidine tag antibody (1:1000 dilution, BioLegend).

[6] = molecular target: FGF-2 (Homo sapiens, UniProt P09038); assay: GF binding to recombinant laminin LG domain protein and synthesized laminin HBD peptides (ELISA); parameters: All growth factors (GFs) and chemokines were purchased in their mature forms; purchased PeproTech; host or cells: Escherichia coli; conditions: plate coated with LG domain protein or peptide, 1 μg/mL GF, vs BSA-coated wells
Chain of FGF-2 (P09038 143-288): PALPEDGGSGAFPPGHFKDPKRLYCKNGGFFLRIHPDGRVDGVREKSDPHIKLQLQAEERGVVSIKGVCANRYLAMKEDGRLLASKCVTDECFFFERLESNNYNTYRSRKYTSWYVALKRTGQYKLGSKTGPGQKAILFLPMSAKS
Procedure: as §2

[7] = Heparin binding to synthesized laminin peptides (ELISA); parameters: key to Interaction with Heparin: ++ indicates high affinities; + indicates medium/low affinities; conditions: for binding to heparin: ELISA, peptide-coated plate, 10 μg/mL biotinylated heparin; for Interaction with Heparin: summary Table 2
Procedure: as §2

[8] = molecular target: T4, PDGF-BB (Homo sapiens, UniProt P01127); assay: GF binding to recombinant laminin LG domain protein and synthesized laminin HBD peptides (ELISA); conditions: plate coated with LG domain protein or peptide, 1 μg/mL GF, vs BSA-coated wells
T4 construct: All growth factors (GFs) and chemokines were purchased in their mature forms; purchased PeproTech; host or cells: Escherichia coli
T4 sequence (P01127 82-190 limits assumed): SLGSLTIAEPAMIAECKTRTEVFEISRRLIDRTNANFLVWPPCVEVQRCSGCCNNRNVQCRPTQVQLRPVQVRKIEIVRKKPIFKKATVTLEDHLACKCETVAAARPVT
Procedure: as §2

[9] = molecular target: T2, PlGF-2; assay: as above; parameters: All growth factors (GFs) and chemokines were purchased in their mature forms; purchased PeproTech; host or cells: Escherichia coli; conditions: plate coated with LG domain protein or peptide, 1 μg/mL GF, vs BSA-coated wells
Procedure: as §2

[10] = molecular target: T1, VEGF-A165; assay: vWF binding to recombinant VEGF-A isoforms (ELISA); conditions: plate coated with 50 nM vWF domains, 1 μg/mL VEGF-A, vs BSA
Procedure: (§3) ELISA was performed as previously reported1. In brief, ELISA plates (med binding: Greiner Bio-One) were coated with 50 nM BSA (GE Healthcare), pro-peptide containing recombinant vWF (Sino Biological), plasma-derived vWF (EMD Millipore), recombinant human vWF A1 domain (U-Protein Express), recombinant human vWF A2 domain (R & D systems), recombinant human vWF A3 domain (U-Protein Express), vWF A1 HBD peptide or scrambled/mutated HBD peptide (all peptides were synthesized by Genscript). After blocking with 2% BSA solution containing PBS-T, 1 μg/mL of recombinant human VEGF-A121 (PeproTech), recombinant human VEGF-A145 (R & D Systems), or recombinant human VEGF-A165 (PeproTech) was added. Bound VEGF-A was detected with 1 μg/mL of mouse anti-human VEGF-A antibody (clone: 26503, R & D systems). After 60 min of incubation, horseradish peroxidase (HRP) conjugated goat anti-mouse antibody (1:2000 dilution, Dako) was added and incubated for another 60 min. Color development and the absorbance measurement were done as described above.

[11] = molecular target: T3, VEGF-A145; assay: vWF binding to recombinant VEGF-A isoforms (ELISA); conditions: plate coated with 50 nM vWF domains, 1 μg/mL VEGF-A, vs BSA
Procedure: as §3

Molecule | fibroblast attachment [1] | Cell adhesion Fibroblasts [1] | HUVEC attachment [2] | Cell adhesion HUVECs [2] | Interaction with GFs [3] | binding to VEGF-A165 [4] | binding to recombinant syndecans (syndecan 1-4) [5] | Interaction with Syndecans [5] | binding to FGF-2 [6] | binding to heparin [7] | Interaction with Heparin [7] | binding to the tested GFs [3] | binding to PDGF-BB [8] | binding to PlGF-2 [9] | binding to VEGF-A165 [10] | binding to VEGF-A145 [11]
PPFLMLLKGSTRFNKTKTFR [α32932-2951, laminin α3 chain LG3-LG4 linker peptide, 20 aa] | enhancement of fibroblast attachment | + | promoted HUVEC attachment | + | + | preferentially bound | weak binding | + | preferentially bound | bound to heparin | ++ | – | – | – | – | –
ARKASRRSRQPARH [α53312-3325, laminin α5 chain linker peptide, 14 aa] | – | – | – | – | – | – | weak binding | + | – | did not bind to heparin | – | did not show particular binding to any tested GF | – | – | – | –
PLFLLHKKGKNLSKPKASQNKKGGKSK [α41408-1434, laminin α4 chain linker peptide, 27 aa] | – | – | – | – | ++ | bound | significant binding | ++ | bound | bound to heparin | ++ | – | bound | bound | – | –
KNSFMALYLSKGR [α33031-3043, laminin α3 chain LG4-derived peptide, 13 aa] | enhancement of fibroblast attachment | + | – | – | + | bound | weak binding | + | – | non-heparin binding | – | – | – | – | – | –
RQRSRPGRWHKVSVRWEKNR [α53417-3436, laminin α5 chain LG4-derived peptide, 20 aa] | enhancement of fibroblast attachment | + | – | – | ++ | bound | significant binding | ++ | bound | bound to heparin | ++ | – | bound | bound | – | –
pro-peptide-containing recombinant vWF: immature, pro-peptide containing recombinant vWF (Sino Biological) | – | – | – | – | – | – | – | – | – | – | – | – | – | – | bind | –
A3: recombinant human vWF A3 domain (U-Protein Express) | – | – | – | – | – | – | – | – | – | – | – | – | – | – | no binding | no binding
TLPDVGLELEVR [α53539-3550, laminin α5 chain LG5-derived peptide, 12 aa] | – | – | – | – | + | – | did not show binding | – | – | did not show binding to heparin; also recorded: non-heparin binding | – | significantly bound to all tested GFs | – | – | – | –
TLFLAHGRLVYMFNVGHKKLKIR [α41521-1543, laminin α4 chain LG4-derived peptide, 23 aa] | enhancement of fibroblast attachment | + | promoted HUVEC attachment | + | + | – | significant binding | ++ | – | bound to heparin | ++ | – | not statistically significant | – | – | –
TPGLGPRGLQATARKASRRSRQPARHPACML [α53300-3330, laminin α5 chain linker peptide, 31 aa] | – | – | – | – | + | preferentially bound | significant binding | ++ | – | bound to heparin | ++ | – | – | preferentially bound | – | –
B1 | – | – | – | – | – | – | – | – | – | – | – | – | – | – | no binding | no binding
